According to patent US11673897B2, “Compounds for the treatment of kinase-dependent disorders” (Exelixis, Inc., priority 2018, dated 2023):

Assays:
Assay type in all cases: cell-based
[1] = molecular target: KDR (Homo sapiens (Human), UniProt P35968); test: KDR autophosphorylation ELISA in HUVEC cells; details: cellular, VEGF165-stimulated, phospho-KDR ELISA
Method: Human umbilical vein endothelial cells or HUVEC (Lonza #C2519A) were seeded at 2×10^4 cells/well onto 96-well plates (Corning #3904), in EGM-2 growth medium (Lonza #CC-3162) containing 1% Penicillin Streptomycin (Thermo Fisher #15140-122). HUVEC cells were incubated at 37° C., 5% CO2 for 24 h and then starved for 24 h in serum-free EBM-2 basal medium (Lonza #CC-3156) containing 1% Penicillin Streptomycin. Test compounds were serially diluted to produce an 8-point dose curve in fresh serum-free medium to a final concentration of 0.3% DMSO (vehicle) and added to the cells and incubated for 1 h. Cells were then stimulated with 100 ng/mL recombinant human VEGF165 (R&D Systems #293-VE-500) for 5 min, washed with cold PBS, and immediately lysed with 130 μL of cold 1× lysis buffer [20 mM Tris, 137 mM sodium chloride, 2 mM EDTA, 10% glycerol, 1% NP-40 alternative, 1 mM activated sodium orthovanadate, 1 mM PefaBloc SC (Sigma-Aldrich #11429868001), protease/phosphatase inhibitor tablet (Thermo Fisher #A32959)]. Lysates were collected and 100 μL/well added into the human phospho-KDR DuoSet IC ELISA (R&D Systems #DYC1766-2). Assay was performed according to manufacturer's instructions and sample phospho-KDR concentrations were extrapolated using human phospho-KDR control (R&D Systems #841421) as a standard. Positive control wells (100% activity) contained VEGF165-stimulated, DMSO-treated cell lysates. Negative control wells (0% activity) contained non-stimulated cell lysates. IC50 values were calculated by nonlinear regression analysis using a 4-parameter logistic curve fit in ActivityBase XE (IDBS).

[2] = molecular target: Met (Homo sapiens (Human), UniProt P08581); test: Met autophosphorylation ELISA in PC-3 cells; details: cellular, HGF-stimulated, phospho-Met ELISA, read-out: c-Met IC50
Met, sequence (P08581 25-1390): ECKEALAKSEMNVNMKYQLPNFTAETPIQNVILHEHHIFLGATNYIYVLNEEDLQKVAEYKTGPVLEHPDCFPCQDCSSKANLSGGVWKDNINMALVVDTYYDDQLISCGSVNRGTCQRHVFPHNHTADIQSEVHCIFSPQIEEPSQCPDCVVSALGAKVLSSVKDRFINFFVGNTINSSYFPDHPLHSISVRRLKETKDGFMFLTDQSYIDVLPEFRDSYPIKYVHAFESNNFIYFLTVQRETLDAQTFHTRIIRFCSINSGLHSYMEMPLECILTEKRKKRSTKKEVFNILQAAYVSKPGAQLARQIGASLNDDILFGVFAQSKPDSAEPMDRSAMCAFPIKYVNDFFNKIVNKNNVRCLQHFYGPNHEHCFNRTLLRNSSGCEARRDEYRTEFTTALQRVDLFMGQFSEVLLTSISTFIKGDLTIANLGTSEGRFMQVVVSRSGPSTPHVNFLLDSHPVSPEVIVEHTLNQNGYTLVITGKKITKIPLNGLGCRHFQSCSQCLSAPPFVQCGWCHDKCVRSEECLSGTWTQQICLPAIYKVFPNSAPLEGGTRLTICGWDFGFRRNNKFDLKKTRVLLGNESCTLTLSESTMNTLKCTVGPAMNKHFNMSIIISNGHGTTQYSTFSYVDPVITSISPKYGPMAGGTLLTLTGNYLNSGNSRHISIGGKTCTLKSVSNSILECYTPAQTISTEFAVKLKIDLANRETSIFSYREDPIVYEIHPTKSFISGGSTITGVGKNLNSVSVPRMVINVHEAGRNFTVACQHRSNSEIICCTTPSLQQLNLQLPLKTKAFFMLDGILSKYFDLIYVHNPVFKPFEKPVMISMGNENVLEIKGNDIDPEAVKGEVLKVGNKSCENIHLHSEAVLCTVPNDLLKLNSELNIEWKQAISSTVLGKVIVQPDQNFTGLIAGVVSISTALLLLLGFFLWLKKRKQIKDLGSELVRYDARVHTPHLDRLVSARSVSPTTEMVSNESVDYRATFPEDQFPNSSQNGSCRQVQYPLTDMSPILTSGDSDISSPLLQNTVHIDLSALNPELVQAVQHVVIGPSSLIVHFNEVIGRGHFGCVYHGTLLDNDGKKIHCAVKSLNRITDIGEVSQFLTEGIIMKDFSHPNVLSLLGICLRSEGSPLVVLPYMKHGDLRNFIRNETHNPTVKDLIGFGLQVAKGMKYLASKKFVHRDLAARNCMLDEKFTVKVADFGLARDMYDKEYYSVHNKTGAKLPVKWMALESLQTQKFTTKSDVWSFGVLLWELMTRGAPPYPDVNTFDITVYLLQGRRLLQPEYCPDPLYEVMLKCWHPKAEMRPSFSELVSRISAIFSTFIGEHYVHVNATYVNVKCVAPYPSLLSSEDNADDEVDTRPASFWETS
Method: PC-3 prostate cancer cells (ATCC #CRL-1435) were seeded at 4×10^4 cells/well onto 24-well plates (Greiner #662165), in DMEM (Thermo Fisher #11995-040) containing 10% FBS (Thermo Fisher #26140-079), 1% MEM NEAA (Thermo Fisher #11140-050), 1% GlutaMax (Thermo Fisher #35050-061), and 1% Penicillin Streptomycin (Thermo Fisher #15140-122). PC-3 cells were incubated at 37° C., 5% CO2 for 24 h and then starved for 3 h in serum-free medium. Test compounds were serially diluted to produce an 8-point dose curve in fresh serum-free medium to a final concentration of 0.3% DMSO (vehicle) and added to the cells and incubated for 1 h. Cells were then stimulated with 100 ng/mL recombinant human HGF (R&D Systems #294-HG-250) for 10 min, washed with cold PBS, and immediately lysed with 130 μL of cold 1× lysis buffer [20 mM Tris, 137 mM sodium chloride, 2 mM EDTA, 10% glycerol, 1% NP-40 alternative, 1 mM activated sodium orthovanadate, 1 mM PefaBloc SC (Sigma-Aldrich #11429868001), and protease/phosphatase inhibitor tablet (Thermo Fisher #A32959)]. Lysates were clarified by centrifugation and 100 μL/well added into the PathScan phospho-Met (panTyr) Sandwich ELISA (Cell Signaling Technology #7333). Assay was performed according to manufacturer's instructions. Positive control wells (100% activity) contained HGF-stimulated, DMSO-treated cell lysates. Negative control wells (0% activity) contained HGF-stimulated, reference inhibitor-treated cell lysates. IC50 values were calculated by nonlinear regression analysis using a 4-parameter logistic curve fit in ActivityBase XE (IDBS).

[3] = molecular target: AXL (Homo sapiens (Human), UniProt P30530); test: AXL autophosphorylation ELISA in A-172 cells; details: cellular, Gas6-stimulated, phospho-AXL ELISA
AXL, sequence (P30530 26-894): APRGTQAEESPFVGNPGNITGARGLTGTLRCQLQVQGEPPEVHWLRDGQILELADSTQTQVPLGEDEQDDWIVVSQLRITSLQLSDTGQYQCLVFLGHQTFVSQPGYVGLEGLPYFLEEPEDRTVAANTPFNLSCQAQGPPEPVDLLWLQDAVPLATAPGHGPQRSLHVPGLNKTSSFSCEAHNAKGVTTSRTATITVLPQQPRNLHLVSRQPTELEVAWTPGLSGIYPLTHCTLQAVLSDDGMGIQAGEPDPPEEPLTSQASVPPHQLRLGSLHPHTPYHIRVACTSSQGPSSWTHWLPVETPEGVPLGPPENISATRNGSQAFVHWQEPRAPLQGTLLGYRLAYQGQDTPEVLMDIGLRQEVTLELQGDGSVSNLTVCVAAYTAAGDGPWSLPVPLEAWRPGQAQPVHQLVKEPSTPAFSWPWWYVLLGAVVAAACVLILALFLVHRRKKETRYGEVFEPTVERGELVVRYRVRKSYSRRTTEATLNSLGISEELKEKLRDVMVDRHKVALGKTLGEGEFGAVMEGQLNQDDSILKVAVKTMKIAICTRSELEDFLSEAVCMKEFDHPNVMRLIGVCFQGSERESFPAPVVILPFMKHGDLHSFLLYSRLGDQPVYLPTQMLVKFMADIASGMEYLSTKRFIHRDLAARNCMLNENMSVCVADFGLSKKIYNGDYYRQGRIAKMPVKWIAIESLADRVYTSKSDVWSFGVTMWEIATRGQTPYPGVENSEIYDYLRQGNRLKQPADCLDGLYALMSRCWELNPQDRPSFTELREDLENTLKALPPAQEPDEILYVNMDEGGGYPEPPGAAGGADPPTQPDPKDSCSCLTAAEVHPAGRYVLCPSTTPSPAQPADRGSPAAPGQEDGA
Method: A-172 glioblastoma cells (ATCC #CRL-1620) were seeded at 2.5×10^5 cells/well onto 24-well plates (Greiner #662165), in […] (Thermo Fisher #11995-040) containing 10% FBS (Thermo Fisher #26140-079), […] (Thermo Fisher #11140-050), […] (Thermo Fisher #35050-061), and 1% Penicillin Streptomycin (Thermo Fisher #15140-122). A-172 cells were incubated at 37° C., […] for 24 hand then starved for 24 h in serum-free medium. Test compounds were serially diluted to produce an 8-point dose curve in fresh serum-free medium to a final concentration of 0.3% DMSO (vehicle) and added to the cells and incubated for 1 h. Cells were then stimulated with 1 μg/mL recombinant human Gas6 (R&D Systems #885-GSB-500) for 15 min, washed with cold PBS, and immediately lysed with 150 μL of cold 1× lysis buffer [20 mM Tris, 137 mM sodium chloride, 2 mM EDTA, 10% glycerol, 1% NP-40 alternative, 1 mM activated sodium orthovanadate, 1 mM PefaBloc SC (Sigma-Aldrich #11429868001), protease/phosphatase inhibitor tablet (Thermo Fisher #A32959)]. Lysates were collected and 100 μL/well added into the human phospho-AXL DuoSet IC ELISA (R&D Systems #DYC2228-2). Assay was performed according to manufacturer's instructions and sample phospho-AXL concentrations were extrapolated using human phospho-AXL control (R&D Systems #841645) as a standard. Positive control wells (100% activity) contained Gas6-stimulated, DMSO-treated cell lysates. Negative control wells (0% activity) contained Gas6-stimulated, reference inhibitor-treated cell lysates. IC50 values were calculated by nonlinear regression analysis using a 4-parameter logistic curve fit in ActivityBase XE (IDBS).

KDR, sequence (P35968 20-1356): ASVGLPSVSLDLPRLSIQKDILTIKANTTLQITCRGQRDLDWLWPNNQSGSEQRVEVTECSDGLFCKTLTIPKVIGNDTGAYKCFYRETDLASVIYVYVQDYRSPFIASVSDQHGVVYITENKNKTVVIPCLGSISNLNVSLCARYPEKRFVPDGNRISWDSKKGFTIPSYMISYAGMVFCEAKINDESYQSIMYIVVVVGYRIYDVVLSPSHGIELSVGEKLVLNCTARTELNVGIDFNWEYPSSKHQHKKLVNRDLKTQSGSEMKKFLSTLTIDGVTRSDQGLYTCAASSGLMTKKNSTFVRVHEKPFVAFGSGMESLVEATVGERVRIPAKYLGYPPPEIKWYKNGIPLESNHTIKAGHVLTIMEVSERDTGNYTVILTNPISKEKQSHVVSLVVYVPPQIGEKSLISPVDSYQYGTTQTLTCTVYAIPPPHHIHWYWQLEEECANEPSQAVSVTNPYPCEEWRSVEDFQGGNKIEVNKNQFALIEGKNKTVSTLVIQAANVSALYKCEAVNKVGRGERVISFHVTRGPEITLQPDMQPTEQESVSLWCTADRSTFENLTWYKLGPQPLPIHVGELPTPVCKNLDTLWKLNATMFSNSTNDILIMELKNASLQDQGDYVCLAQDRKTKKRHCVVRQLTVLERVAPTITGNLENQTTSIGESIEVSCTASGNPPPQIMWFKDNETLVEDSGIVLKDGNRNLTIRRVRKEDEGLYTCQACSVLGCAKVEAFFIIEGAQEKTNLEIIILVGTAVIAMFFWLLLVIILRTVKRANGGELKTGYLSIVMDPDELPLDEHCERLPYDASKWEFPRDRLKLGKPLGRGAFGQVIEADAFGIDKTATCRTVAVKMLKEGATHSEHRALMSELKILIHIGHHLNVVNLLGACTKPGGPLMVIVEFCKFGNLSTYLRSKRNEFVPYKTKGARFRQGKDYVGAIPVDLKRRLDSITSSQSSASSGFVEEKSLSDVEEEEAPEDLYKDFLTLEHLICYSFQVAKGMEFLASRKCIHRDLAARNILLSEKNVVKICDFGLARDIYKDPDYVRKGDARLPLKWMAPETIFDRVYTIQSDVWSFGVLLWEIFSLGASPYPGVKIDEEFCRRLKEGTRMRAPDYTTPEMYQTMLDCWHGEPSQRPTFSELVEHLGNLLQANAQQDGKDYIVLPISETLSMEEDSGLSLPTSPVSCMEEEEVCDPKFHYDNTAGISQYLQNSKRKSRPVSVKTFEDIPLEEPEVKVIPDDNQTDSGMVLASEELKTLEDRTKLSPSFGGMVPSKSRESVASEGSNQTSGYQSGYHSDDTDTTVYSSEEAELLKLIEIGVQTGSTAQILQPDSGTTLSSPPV

Structure (SMILES)	IC50 [1] [µM]	IC50 [2] [µM]	IC50 [3] [µM]
COc1nc2c(Oc3ncc(NC(=O)C4(C(=O)Nc5ccc(F)cc5)CC4)cc3F)ccnc2cc1O [Compound 121, 1-N′-[5-Fluoro-6-[(7-hydroxy-6-methoxy-1,5-naphthyridin-4-yl)oxy]pyridin-3-yl]-1-N-(4-fluorophenyl)cyclopropane-1,1-dicarboxamide]	> 0.3	> 0.3	> 0.3
O=C(Nc1ccc(F)cc1)C1(C(=O)Nc2cnc(Oc3ccnc4cc5c(nc34)OCCO5)c(Cl)c2)CC1 [Compound 104, 1-N′-[5-Chloro-6-(2,3-dihydro-[1,4]dioxino[2,3-b][1,5]naphthyridin-6-yloxy)pyridin-3-yl]-1-N-(4-fluorophenyl)cyclopropane-1,1-dicarboxamide]	> 0.3	> 0.3	> 0.3
COCc1noc(-c2cc3c(Oc4ncc(NC(=O)C5(C(=O)Nc6ccc(F)cc6)CC5)cc4F)ccnc3cc2OC)n1 [Compound 25, 1-N′-[5-Fluoro-6-[7-methoxy-6-[3-(methoxymethyl)-1,2,4-oxadiazol-5-yl]quinolin-4-yl]oxypyridin-3-yl]-1-N-(4-fluorophenyl)cyclopropane-1,1-dicarboxamide]	> 0.3	> 0.3	> 0.3
COc1cc2nccc(Oc3cc(C)c(NC(=O)C4(C(=O)Nc5ccc(F)cc5)CC4)cn3)c2nc1OC [Compound 83, 1-N′-[6-[(6,7-Dimethoxy-1,5-naphthyridin-4-yl)oxy]-4-methylpyridin-3-yl]-1-N-(4-fluorophenyl)cyclopropane-1,1-dicarboxamide]	> 0.3	> 0.3	> 0.3
CNC(=O)c1cc2c(Oc3ncc(NC(=O)C4(C(=O)Nc5ccc(F)cc5)CC4)cc3F)ccnc2cc1OCCO [Compound 44, 1-N′-[5-Fluoro-6-[7-(2-hydroxyethoxy)-6-(methylcarbamoyl)-quinolin-4-yl]oxypyridin-3-yl]-1-N-(4-fluorophenyl)cyclopropane-1,1-dicarboxamide]	> 0.3	0.01 to 0.1	0.01 to 0.1
COc1cc2nccc(Oc3ncc(NC(=O)C4(C(=O)Nc5ccc(F)cc5)CC4)cc3OC)c2nc1OC [Compound 92, 1-N′-[6-[(6,7-Dimethoxy-1,5-naphthyridin-4-yl)oxy]-5-methoxypyridin-3-yl]-1-N-(4-fluorophenyl)cyclopropane-1,1-dicarboxamide]	> 0.3	> 0.3	> 0.3
COCCOc1cc2ncnc(Oc3ncc(NC(=O)C4(C(=O)Nc5ccc(F)cc5)CC4)cc3F)c2nc1OC [Compound 159, 1-N′-[5-Fluoro-6-[6-methoxy-7-(2-methoxyethoxy)pyrido[3,2-d]pyrimidin-4-yl]oxypyridin-3-yl]-1-N-(4-fluorophenyl)cyclopropane-1,1-dicarboxamide]	> 0.3	> 0.3	> 0.3

Continued, values first:

IC50 [1] [µM]	IC50 [2] [µM]	IC50 [3] [µM]	Structure (SMILES)
> 0.3	> 0.3	> 0.3	O=C(Nc1ccc(F)cc1)C1(C(=O)Nc2ccc(Oc3ccnc4cc5c(nc34)OCCO5)nc2)CC1 [Compound 103, 1-N′-[6-(2,3-Dihydro-[1,4]dioxino[2,3-b][1,5]naphthyridin-6-yloxy)pyridin-3-yl]-1-N-(4-fluorophenyl)cyclopropane-1,1-dicarboxamide]
> 0.3	> 0.3	0.1 to 0.3	COc1cc(Oc2ccnc3cc(OC)c(OC)nc23)ncc1NC(=O)C1(C(=O)Nc2ccc(F)cc2)CC1 [Compound 88, 1-N′-[6-[(6,7-Dimethoxy-1,5-naphthyridin-4-yl)oxy]-4-methoxypyridin-3-yl]-1-N-(4-fluorophenyl)cyclopropane-1,1-dicarboxamide]
> 0.3	> 0.3	> 0.3	COc1cc2nccc(Oc3ncc(NC(=O)C4(C(=O)Nc5ccc(F)cc5)CC4)cc3F)c2nc1OCCCN1CCOCC1 [Compound 135, 1-N′-[5-Fluoro-6-[[7-methoxy-6-(3-morpholin-4-ylpropoxy)-1,5-naphthyridin-4-yl]oxy]pyridin-3-yl]-1-N-(4-fluorophenyl)cyclopropane-1,1-dicarboxamide]
> 0.3	> 0.3	> 0.3	COc1cc2nccc(Oc3ncc(NC(=O)C4(C(=O)Nc5ccc(F)cc5)CC4)cc3C#N)c2nc1OC [Compound 84, 1-N′-[5-Cyano-6-[(6,7-dimethoxy-1,5-naphthyridin-4-yl)oxy]pyridin-3-yl]-1-N-(4-fluorophenyl)cyclopropane-1,1-dicarboxamide]
> 0.3	> 0.3	> 0.3	O=C(Nc1ccc(F)cc1)C1(C(=O)Nc2cnc(Oc3ccnc4cc5c(nc34)OCCO5)c(F)c2)CC1 [Compound 105, 1-N′-[6-(2,3-Dihydro-[1,4]dioxino[2,3-b][1,5]naphthyridin-6-yloxy)-5-fluoropyridin-3-yl]-1-N-(4-fluorophenyl)cyclopropane-1,1-dicarboxamide]
> 0.3	> 0.3	> 0.3	COc1cc2nccc(Oc3ccc(NC(=O)C4(C(=O)Nc5ccc(F)cc5)CC4)c(C(N)=O)n3)c2nc1OC [Compound 91, 1-N′-[2-Carbamoyl-6-[(6,7-dimethoxy-1,5-naphthyridin-4-yl)oxy]pyridin-3-yl]-1-N-(4-fluorophenyl)cyclopropane-1,1-dicarboxamide]
> 0.3	> 0.3	0.01 to 0.1	COCCOc1cc2ncnc(Oc3ccc(NC(=O)C4(C(=O)Nc5ccc(F)cc5)CC4)cn3)c2nc1OC [Compound 156, 1-N-(4-Fluorophenyl)-1-N′-[6-[6-methoxy-7-(2-methoxyethoxy)pyrido[3,2-d]pyrimidin-4-yl]oxypyridin-3-yl]cyclopropane-1,1-dicarboxamide]
> 0.3	> 0.3	> 0.3	COc1cc2nccc(Oc3ncc(NC(=O)C4(C(=O)Nc5ccc(F)cc5)CC4)cc3C(F)(F)F)c2nc1OC [Compound 89, 1-N′-[6-[(6,7-Dimethoxy-1,5-naphthyridin-4-yl)oxy]-5-(trifluoromethyl)pyridin-3-yl]-1-N-(4-fluorophenyl)cyclopropane-1,1-dicarboxamide]
> 0.3	> 0.3	> 0.3	COCCc1noc(-c2cc3c(Oc4ncc(NC(=O)C5(C(=O)Nc6ccc(F)cc6)CC5)cc4F)ccnc3cc2OC)n1 [Compound 26, 1-N′-[5-Fluoro-6-[7-methoxy-6-[3-(2-methoxyethyl)-1,2,4-oxadiazol-5-yl]quinolin-4-yl]oxypyridin-3-yl]-1-N-(4-fluorophenyl)cyclopropane-1,1-dicarboxamide]
